The source of these data is patent publication US20230303491A1, “DONEPEZIL ETHER PALMITATE OR PHARMACEUTICALLY ACCEPTABLE SALT THEREOF” (CHONG KUN DANG PHARMACEUTICAL CORP., priority 2020, published 2023).

The structures appear in SMILES notation.

The nature of the data set: Pharmacokinetic evaluation: donepezil concentration in plasma after intramuscular injection of solution phase compositions. In kind it is in vivo. Particulars: SD rats; for release pattern: compared among DEP, DEM, DEPD, DEHD and DES formulations (40 mg/kg as donepezil) or with donepezil. As for the experimental part: The main ingredients of Table 1 above, castor oil, and benzyl benzoate were mixed according to the components and amounts of Table 2 below, and stirred at room temperature for 0.5 to 3 hours to prepare solution phase compositions.
Four male SD rats with an average weight of 300 g were intramuscularly injected with a dose of 4 mg/kg of donepezil in the formulation of donepezil (D) and 40 mg/kg of donepezil each in the DEP, DEM, DEPD, DEHD, and DES formulations, and the concentrations of donepezil in plasma samples of SD rats were analyzed using LC-MS/MS.

`CCCCCCCCCCCCCCOCC(=O)OC1=C(CC2CCN(Cc3ccccc3)CC2)Cc2cc(OC)c(OC)cc21` [DEP, 2-((1-benzylpiperidin-4-yl)methyl)-5,6-dimethoxy-1H-inden-3-yl 2-(tetradecyloxy) acetate]: the release pattern result was “most preferred for the sustained-release composition”. The “release of drug immediately after administration” value (D 4 mg/kg, DEP 40 mg/kg as donepezil) was “without rapid release of drug after administration”. In addition, where the note is “listed as donepezil ether palmitate (DEP)”, the release pattern entry is “better release pattern than that of donepezil”.
